Source: paper PMC6858927 (Investigational new drugs, 2019)
Like-named read-outs stand apart in the source and are kept apart here.

[1] = Cohort B Dose 2: 400mg, Decitabine (n=2), grade 3+
[2] = Cohort B dose 1: 200mg, Decitabine (n=6), Total
[3] = Cohort B dose 1: 200mg, Decitabine (n=6), grade 1&2
[4] = Cohort B dose 1: 200mg, Decitabine (n=6), grade 3+

C1=C/COCc2cc(ccc2OCCN2CCCC2)Nc2nccc(n2)-c2cccc(c2)COC/1 [Pacritinib, 11-(2-pyrrolidin-1-yl-ethoxy)-14,19-dioxa-5,7,26-triaza-tetracyclo[19.3.1.1(2,6). 1(8,12)]heptacosa-1(25),2(26),3,5,8,10,12(27),16,21,23-decaene]
1 (16.7): ACTIVATED PARTIAL THROMBOPLASTIN TIME PROLONGED, patients (%) [2] | CONSTIPATION, patients (%) [2] | DIARRHEA, patients (%) [2] | EDEMA LIMBS, patients (%) [2] | FEBRILE NEUTROPENIA, patients (%) [2] | HYPERGLYCEMIA, patients (%) [2] | HYPOALBUMINEMIA, patients (%) [2] | HYPOPHOSPHATEMIA, patients (%) [2] | LUNG INFECTION, patients (%) [2] | PLEURAL EFFUSION, patients (%) [2] | RASH, patients (%) [2] | RESPIRATORY FAILURE, patients (%) [2] | ACTIVATED PARTIAL THROMBOPLASTIN TIME PROLONGED, patients (%) [3] | ANEMIA, patients (%) [3] | CONSTIPATION, patients (%) [3] | DIARRHEA, patients (%) [3] | EDEMA LIMBS, patients (%) [3] | ELECTROCARDIOGRAM QT CORRECTED INTERVAL PROLONGED, patients (%) [3] | HYPERGLYCEMIA, patients (%) [3] | HYPOALBUMINEMIA, patients (%) [3] | LYMPHOCYTE COUNT DECREASED, patients (%) [3] | MUCOSITIS ORAL, patients (%) [3] | PLEURAL EFFUSION, patients (%) [3] | RASH, patients (%) [3] | ELECTROCARDIOGRAM QT CORRECTED INTERVAL PROLONGED, patients (%) [4] | FEBRILE NEUTROPENIA, patients (%) [4] | HYPOPHOSPHATEMIA, patients (%) [4] | LUNG INFECTION, patients (%) [4] | MUCOSITIS ORAL, patients (%) [4] | RESPIRATORY FAILURE, patients (%) [4]
11 (84.6): ANEMIA, patients (%) (Overall (n=13), Total)
6 (100): ANEMIA, patients (%) [2]
5 (38.5): FATIGUE, patients (%) (Overall (n=13), Total) | ELECTROCARDIOGRAM QT CORRECTED INTERVAL PROLONGED, patients (%) (Overall (n=13), grade 1&2) | FATIGUE, patients (%) (Overall (n=13), grade 1&2)
2 (15.4): ACTIVATED PARTIAL THROMBOPLASTIN TIME PROLONGED, patients (%) (Overall (n=13), Total) | ANOREXIA, patients (%) (Overall (n=13), Total) | CONSTIPATION, patients (%) (Overall (n=13), Total) | DYSPNEA, patients (%) (Overall (n=13), Total) | EDEMA LIMBS, patients (%) (Overall (n=13), Total) | LUNG INFECTION, patients (%) (Overall (n=13), Total) | RASH MACULO-PAPULAR, patients (%) (Overall (n=13), Total) | ACTIVATED PARTIAL THROMBOPLASTIN TIME PROLONGED, patients (%) (Overall (n=13), grade 1&2) | ANEMIA, patients (%) (Overall (n=13), grade 1&2) | ANOREXIA, patients (%) (Overall (n=13), grade 1&2) | CONSTIPATION, patients (%) (Overall (n=13), grade 1&2) | DYSPNEA, patients (%) (Overall (n=13), grade 1&2) | EDEMA LIMBS, patients (%) (Overall (n=13), grade 1&2) | LUNG INFECTION, patients (%) (Overall (n=13), grade 3+)
4 (30.8): DIARRHEA, patients (%) (Overall (n=13), Total) | HYPOKALEMIA, patients (%) (Overall (n=13), Total) | MUCOSITIS ORAL, patients (%) (Overall (n=13), Total) | DIARRHEA, patients (%) (Overall (n=13), grade 1&2)
3 (50): LYMPHOCYTE COUNT DECREASED, patients (%) [2] | NAUSEA, patients (%) [2] | NEUTROPHIL COUNT DECREASED, patients (%) [2] | WHITE BLOOD CELL DECREASED, patients (%) [2] | NAUSEA, patients (%) [3] | NEUTROPHIL COUNT DECREASED, patients (%) [4] | WHITE BLOOD CELL DECREASED, patients (%) [4]
2 (33.3): ANOREXIA, patients (%) [2] | ELECTROCARDIOGRAM QT CORRECTED INTERVAL PROLONGED, patients (%) [2] | FATIGUE, patients (%) [2] | HYPOKALEMIA, patients (%) [2] | MUCOSITIS ORAL, patients (%) [2] | VOMITING, patients (%) [2] | ANOREXIA, patients (%) [3] | FATIGUE, patients (%) [3] | HYPOKALEMIA, patients (%) [3] | VOMITING, patients (%) [3] | LYMPHOCYTE COUNT DECREASED, patients (%) [4]
1 (50): HYPOKALEMIA, patients (%) [1] | LYMPHOCYTE COUNT DECREASED, patients (%) [1] | NAUSEA, patients (%) [1] | NEUTROPHIL COUNT DECREASED, patients (%) [1] | PLATELET COUNT DECREASED, patients (%) [1] | WHITE BLOOD CELL DECREASED, patients (%) [1]
0: HYPERTENSION, patients (%) [1] | HYPOALBUMINEMIA, patients (%) [1] | HYPOPHOSPHATEMIA, patients (%) [1] | HYPOXIA, patients (%) [1] | LUNG INFECTION, patients (%) [1] | MUCOSITIS ORAL, patients (%) [1] | PLEURAL EFFUSION, patients (%) [1] | PRURITUS, patients (%) [1] | RASH MACULO-PAPULAR, patients (%) [1] | RASH, patients (%) [1] | RESPIRATORY FAILURE, patients (%) [1] | VOMITING, patients (%) [1] | DYSPNEA, patients (%) [2] | HYPERTENSION, patients (%) [2] | HYPOXIA, patients (%) [2] | PRURITUS, patients (%) [2] | RASH MACULO-PAPULAR, patients (%) [2] | DYSPNEA, patients (%) [3] | FEBRILE NEUTROPENIA, patients (%) [3] | HYPERTENSION, patients (%) [3] | HYPOPHOSPHATEMIA, patients (%) [3] | HYPOXIA, patients (%) [3] | LUNG INFECTION, patients (%) [3] | NEUTROPHIL COUNT DECREASED, patients (%) [3] | PLATELET COUNT DECREASED, patients (%) [3] | PRURITUS, patients (%) [3] | RASH MACULO-PAPULAR, patients (%) [3] | RESPIRATORY FAILURE, patients (%) [3] | WHITE BLOOD CELL DECREASED, patients (%) [3] | ACTIVATED PARTIAL THROMBOPLASTIN TIME PROLONGED, patients (%) [4] | ANOREXIA, patients (%) [4] | CONSTIPATION, patients (%) [4] | DIARRHEA, patients (%) [4] | DYSPNEA, patients (%) [4] | EDEMA LIMBS, patients (%) [4] | FATIGUE, patients (%) [4] | HYPERGLYCEMIA, patients (%) [4] | HYPERTENSION, patients (%) [4] | HYPOALBUMINEMIA, patients (%) [4] | HYPOKALEMIA, patients (%) [4] | HYPOXIA, patients (%) [4] | NAUSEA, patients (%) [4] | PLEURAL EFFUSION, patients (%) [4] | PRURITUS, patients (%) [4] | RASH MACULO-PAPULAR, patients (%) [4] | RASH, patients (%) [4] | VOMITING, patients (%) [4] | LUNG INFECTION, patients (%) (Overall (n=13), grade 1&2) | ACTIVATED PARTIAL THROMBOPLASTIN TIME PROLONGED, patients (%) (human, in vivo) | ANOREXIA, patients (%) (human, in vivo) | CONSTIPATION, patients (%) (human, in vivo) | DIARRHEA, patients (%) (human, in vivo) | DYSPNEA, patients (%) (human, in vivo) | EDEMA LIMBS, patients (%) (human, in vivo) | FATIGUE, patients (%) (human, in vivo)
6 (46.2): ELECTROCARDIOGRAM QT CORRECTED INTERVAL PROLONGED, patients (%) (Overall (n=13), Total)
5 (83.3): PLATELET COUNT DECREASED, patients (%) [2] | ANEMIA, patients (%) [4] | PLATELET COUNT DECREASED, patients (%) [4]
9 (69.2): ANEMIA, patients (%) (human, in vivo)
3 (23.1): HYPERTENSION, patients (%) (Overall (n=13), Total)
7 (53.8): LYMPHOCYTE COUNT DECREASED, patients (%) (Overall (n=13), Total) | NAUSEA, patients (%) (Overall (n=13), Total)
1 (7.7): ELECTROCARDIOGRAM QT CORRECTED INTERVAL PROLONGED, patients (%) (human, in vivo) | RASH MACULO-PAPULAR, patients (%) (human, in vivo)
